From patent US8759326B2, “Drug combinations containing PDE4 inhibitors and NSAIDs” (Boehringer Ingelheim International GmbH, priority 2009, dated 2014)

Key:
male Wistar rats [1] = test: Experiment 4: diarrhoea and mesentery histopathology in rats, roflumilast with or without SC-560 or lumiracoxib; assay type: in vivo, rat; conditions: p.o. four days, roflumilast 10 mg/kg at 1300, SC-560 or lumiracoxib 2 mg/kg at 0800 and 1700, 95 hours after t0; for Diarrhoea: animals affected out of animals; for Mesentery: Proliferation of fibroblasts / Mesentery: multifocal perivascular mononuclear infiltration (=inflammation parameter): animals affected out of animals examined
Procedure: (§1) For pharmacokinetic analysis (determining the plasma levels of the substances) on day 4 one rat from each group was used; these rats were no longer available for other parameters under investigation.
(§2) At the end of the experiment (95 hours after t0 (=the time of the first administration on day 1, 0800 hours)) the rats from the individual groups were examined phenotypically and histopathologically for the presence of multifocal perivascular mononuclear infiltration (=inflammation parameter) in the mesentery and for the proliferation of fibroblasts in the mesentery. In addition, the occurrence of diarrhoea in the rats from the different groups was noted.

male Wistar rats [2] = test: Experiment 3: weight loss, leukocytosis and neutrophilia in rats, roflumilast with or without SC-560 or lumiracoxib; assay type: in vivo, rat
male Wistar rats [3] = test: Experiment 1: weight loss, leukocytosis and neutrophilia in rats, roflumilast with or without diclofenac
Procedure: For pharmacokinetic analysis (determining the plasma levels of the substances) on day 4 one rate from each group was used; these rats were no longer available for other parameters under investigation.
The average±standard deviation of the body weights at time t0 was 355±17 g.
At the end of the experiment (95 hours after t0 (=the time of the first administration on day 1, 0800)) the proportion of white blood cells (×1000 cells/μl blood, FIG. 1B, left-hand Figure) and the proportion of neutrophils (in % of white blood cells, FIG. 1B, right-hand Figure) were determined from the blood of 4 or 5 of the rats from the individual groups.

male Wistar rats [4] = test: Experiment 2: diarrhoea and mesentery histopathology in rats, roflumilast with or without diclofenac; conditions: roflumilast 10 mg/kg p.o. daily; six rats per group; between day 4 and day 5
Procedure: as §1, §2

Structure (SMILES): COc1ccc(-n2nc(C(F)(F)F)cc2-c2ccc(Cl)cc2)cc1 [SC-560]
- Diarrhoea (male Wistar rats [1]): 0/6
- protective effect on roflumilast-mediated weight loss, leukocytosis and neutrophilia (male Wistar rats [2]; SC-560 2 mg/kg p.o. at 0800 and 1700 co-administered with roflumilast 10 mg/kg, four days): absolutely no protective effect

Structure (SMILES): O=C(O)Cc1ccccc1Nc1c(Cl)cccc1Cl [diclofenac]
- parameters measured after the administration of the NSAID alone, compared with control (male Wistar rats [3]; diclofenac 1 mg/kg p.o. at 0800 and 1700, four days): very similar to the control groups

Structure (SMILES): Cc1ccc(Nc2c(F)cccc2Cl)c(CC(=O)O)c1 [lumiracoxib]
- Mesentery: Proliferation of fibroblasts (male Wistar rats [1]): 0/5
- Mesentery: multifocal perivascular mononuclear infiltration (=inflammation parameter) (male Wistar rats [1]): 0/5
- Diarrhoea (male Wistar rats [1]): 0/6
- parameters measured after the administration of the NSAID alone, compared with control (male Wistar rats [2]; 2 mg/kg p.o. at 0800 and 1700, four days): very similar to the control groups

Structure (SMILES): O=C(Nc1c(Cl)cncc1Cl)c1ccc(OC(F)F)c(OCC2CC2)c1 [roflumilast]
- Mesentery: Proliferation of fibroblasts (male Wistar rats [1]): 5/5
- Mesentery: multifocal perivascular mononuclear infiltration (=inflammation parameter) (male Wistar rats [1]): 5/5
- Diarrhoea (male Wistar rats [1]): 2/6
- death of rats (male Wistar rats [4]): one rat
- PDE4 inhibitor-mediated side effects such as weight loss, leukocytosis, neutrophilia and diarrhoea (male Wistar rats [2]; FIG. 2A, 2B, p.o. four days, roflumilast 10 mg/kg, lumiracoxib 2 mg/kg twice daily): observed
- death of rats (male Wistar rats [3]; roflumilast 10 mg/kg p.o. daily, six rats per group, between day 4 and day 5): one rat
